According to ChEMBL document CHEMBL1201862, “PubChem BioAssay data set” (2004):
Calls of active or inactive are those of the source.

Columns and labels:
[1] = cytotoxicity toward NIH3T3 fibroblasts, dose response, counter-screen, cell-based, ATP luminescence, mouse fibroblasts (AID 2010); type: functional;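 note: cells exposed to compound for about 90 hours before reading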
[2] = Vero E6 cell cytotoxicity, dose response, cytotoxicity control for non-replicating M. tuberculosis project, secondary assay (AID 492998); type: functional, VeroE6; details: Vero C1008
[3] = Counterscreen for AddAB inhibitors: absorbance-based bacterial cell-based high throughput dose response assay for inhibitors of bacterial viability. [Related pubchem assays (depositor defined):AID435030, AID449728, AID449731, AID488942, AID488955, AID488956]; type: functional
[4] = THP-1 cell cytotoxicity, dose response, cytotoxicity control for non-replicating M. tuberculosis project (AID 489025); type: functional
Exodeoxyribonuclease V = target: T1, Exodeoxyribonuclease V (Escherichia coli (strain K12), UniProt P04993+P07648+P08394); experiment: E. coli RecBCD inhibitors, dose response, counter-screen for AddAB inhibitor project, absorbance, V66 E. coli, mutant T4 phage (AID 492957); type: functional, cell-based, Escherichia coli str. K-12 substr. MG1655
T1 sequence (P04993 whole entry): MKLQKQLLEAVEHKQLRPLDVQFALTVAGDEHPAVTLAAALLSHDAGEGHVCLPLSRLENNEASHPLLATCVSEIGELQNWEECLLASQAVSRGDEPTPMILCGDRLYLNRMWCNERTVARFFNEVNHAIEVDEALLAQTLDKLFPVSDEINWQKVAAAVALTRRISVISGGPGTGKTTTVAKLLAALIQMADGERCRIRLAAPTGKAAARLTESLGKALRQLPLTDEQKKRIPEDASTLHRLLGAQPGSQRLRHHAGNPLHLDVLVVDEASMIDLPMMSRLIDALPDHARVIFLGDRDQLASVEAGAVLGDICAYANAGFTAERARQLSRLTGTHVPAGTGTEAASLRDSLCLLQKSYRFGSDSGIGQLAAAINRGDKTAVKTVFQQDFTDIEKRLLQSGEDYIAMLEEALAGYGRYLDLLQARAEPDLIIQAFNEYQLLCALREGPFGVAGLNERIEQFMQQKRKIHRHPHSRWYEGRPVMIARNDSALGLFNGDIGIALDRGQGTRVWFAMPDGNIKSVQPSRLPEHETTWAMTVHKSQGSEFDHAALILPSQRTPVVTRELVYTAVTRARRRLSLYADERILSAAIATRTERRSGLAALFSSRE
T1 sequence (P07648 whole entry): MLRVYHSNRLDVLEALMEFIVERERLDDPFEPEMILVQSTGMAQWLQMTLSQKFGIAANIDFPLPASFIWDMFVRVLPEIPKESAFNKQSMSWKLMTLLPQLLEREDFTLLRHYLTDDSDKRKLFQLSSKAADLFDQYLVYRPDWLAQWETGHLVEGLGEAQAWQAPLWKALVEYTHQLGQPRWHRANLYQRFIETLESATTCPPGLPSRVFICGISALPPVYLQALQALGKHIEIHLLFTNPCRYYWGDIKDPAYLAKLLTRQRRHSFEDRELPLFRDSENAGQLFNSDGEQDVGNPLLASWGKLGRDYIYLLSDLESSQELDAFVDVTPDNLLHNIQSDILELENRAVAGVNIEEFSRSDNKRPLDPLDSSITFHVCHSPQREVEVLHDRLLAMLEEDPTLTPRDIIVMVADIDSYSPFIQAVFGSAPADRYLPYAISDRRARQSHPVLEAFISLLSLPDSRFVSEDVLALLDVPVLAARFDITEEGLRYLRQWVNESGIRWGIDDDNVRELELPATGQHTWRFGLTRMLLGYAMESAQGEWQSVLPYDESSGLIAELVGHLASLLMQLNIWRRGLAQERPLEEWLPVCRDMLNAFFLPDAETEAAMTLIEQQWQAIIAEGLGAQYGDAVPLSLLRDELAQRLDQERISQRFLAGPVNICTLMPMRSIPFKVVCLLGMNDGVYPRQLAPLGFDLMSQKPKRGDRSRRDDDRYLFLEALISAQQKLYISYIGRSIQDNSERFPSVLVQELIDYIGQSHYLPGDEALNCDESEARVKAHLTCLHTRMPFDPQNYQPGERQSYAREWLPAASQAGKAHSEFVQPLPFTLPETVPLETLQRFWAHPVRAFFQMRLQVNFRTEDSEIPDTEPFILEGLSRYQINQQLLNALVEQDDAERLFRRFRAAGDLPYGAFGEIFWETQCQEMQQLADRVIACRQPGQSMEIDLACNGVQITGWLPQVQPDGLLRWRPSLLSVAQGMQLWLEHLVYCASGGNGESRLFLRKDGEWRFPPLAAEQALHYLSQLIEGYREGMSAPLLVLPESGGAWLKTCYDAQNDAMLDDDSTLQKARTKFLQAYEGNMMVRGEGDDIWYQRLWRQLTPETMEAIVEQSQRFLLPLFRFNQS
T1 sequence (P08394 whole entry): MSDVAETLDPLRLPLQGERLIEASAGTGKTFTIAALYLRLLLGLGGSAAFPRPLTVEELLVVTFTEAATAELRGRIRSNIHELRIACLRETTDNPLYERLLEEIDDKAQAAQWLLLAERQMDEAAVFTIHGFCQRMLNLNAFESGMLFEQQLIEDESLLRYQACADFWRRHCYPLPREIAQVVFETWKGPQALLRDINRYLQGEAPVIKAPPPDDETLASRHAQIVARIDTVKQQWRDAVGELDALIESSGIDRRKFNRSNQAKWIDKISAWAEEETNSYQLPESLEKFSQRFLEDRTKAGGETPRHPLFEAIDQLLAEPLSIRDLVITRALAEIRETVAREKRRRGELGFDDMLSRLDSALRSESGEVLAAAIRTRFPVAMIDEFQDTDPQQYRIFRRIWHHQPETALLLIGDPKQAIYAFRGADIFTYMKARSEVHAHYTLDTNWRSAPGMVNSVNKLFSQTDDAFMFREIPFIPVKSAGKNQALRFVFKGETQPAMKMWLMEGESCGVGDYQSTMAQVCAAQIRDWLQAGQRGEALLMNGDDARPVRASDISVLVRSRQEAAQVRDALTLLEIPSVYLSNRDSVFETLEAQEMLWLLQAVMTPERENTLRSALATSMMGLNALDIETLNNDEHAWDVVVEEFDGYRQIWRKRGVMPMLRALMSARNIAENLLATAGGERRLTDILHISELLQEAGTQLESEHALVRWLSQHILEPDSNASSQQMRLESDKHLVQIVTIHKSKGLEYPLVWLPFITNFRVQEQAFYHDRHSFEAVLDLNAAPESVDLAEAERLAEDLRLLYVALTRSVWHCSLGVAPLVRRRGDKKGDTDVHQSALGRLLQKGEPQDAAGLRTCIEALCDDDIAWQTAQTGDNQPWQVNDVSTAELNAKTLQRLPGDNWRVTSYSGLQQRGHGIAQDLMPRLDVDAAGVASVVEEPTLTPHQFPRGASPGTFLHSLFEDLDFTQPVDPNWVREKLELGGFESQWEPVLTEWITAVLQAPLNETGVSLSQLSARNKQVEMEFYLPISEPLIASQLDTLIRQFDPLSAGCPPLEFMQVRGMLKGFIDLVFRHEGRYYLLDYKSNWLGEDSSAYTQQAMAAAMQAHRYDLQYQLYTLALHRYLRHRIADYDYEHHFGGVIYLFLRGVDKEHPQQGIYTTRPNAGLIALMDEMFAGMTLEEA

cells = type: functional
[5] = inhibitors of intracellular T. cruzi replication, confirmation, NIH3T3 host cells, beta-gal luminescence (AID 2044); type: functional, cell-based;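 note: intracellular parasites grown in NIH/3T3 mouse fibroblasts as host cells; luminescent beta-galactosidase reporter signal from transgenic T. cruzi replicating inside host cells; inhibitors lower the luminescence signal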
Streptococcus = experiment: Group A Streptococcus viability loss, dose response, counter-screen for streptokinase expression inhibitor project, luminescence, BacTiterGlo (AID 1915); type: functional, organism-based;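 note: potency for reduction of bacterial viability or growth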
[6] = system: Streptococcus sp. 'group A'; experiment: growth inhibition of control SK(-) GAS strain, dose response, counter-screen for streptokinase expression inhibitor project, luminescence, kanamycin, BacTiterGlo, confirmation (AID 1900); type: functional, organism-based
Beta Lactamase = Beta Lactamase (Pseudomonas aeruginosa, UniProt Q932Y6); experiment: beta-lactamase reporter inhibitor potency, dose response, artefact control for TLR9-MyD88 binding inhibitor project, BLA reporter cells, FRET fluorescence (AID 588341); type: cell-based;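 note: cell based assay in CHO-K1 cells stably expressing beta-lactamase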
Sequence of Beta Lactamase (Q932Y6 whole entry): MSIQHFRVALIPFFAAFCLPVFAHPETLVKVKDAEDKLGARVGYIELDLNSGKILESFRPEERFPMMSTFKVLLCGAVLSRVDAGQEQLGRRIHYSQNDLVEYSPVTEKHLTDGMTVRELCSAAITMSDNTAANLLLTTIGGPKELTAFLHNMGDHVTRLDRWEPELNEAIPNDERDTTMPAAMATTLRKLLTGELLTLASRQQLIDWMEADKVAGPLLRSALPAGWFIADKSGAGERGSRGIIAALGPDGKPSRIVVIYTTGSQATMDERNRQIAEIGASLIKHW

[7] = HEp-2 cell cytotoxicity, dose response, cytotoxicity control for RSV inhibitor project, HTS (AID 2410); type: functional; details: human respiratory syncytial virus
CHO = experiment: cytotoxicity in TLR9-MyD88 CHO cells, dose response, cytotoxicity control for TLR9-MyD88 binding inhibitor project, cell-based, luminescence (AID 588339); type: functional, hamster; details: Cricetulus griseus;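 note: CHO cells stably coexpressing TLR9 and MyD88 fusions from primary screen; compound exposure lasted 48 hours before viability readout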
Aurora kinase A = target: T2, Aurora kinase A (Homo sapiens, UniProt O14965); type: functional;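 note: value from the Navigating the Kinome kinase panel profiling, panel entry STK6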
T2 sequence (O14965 whole entry): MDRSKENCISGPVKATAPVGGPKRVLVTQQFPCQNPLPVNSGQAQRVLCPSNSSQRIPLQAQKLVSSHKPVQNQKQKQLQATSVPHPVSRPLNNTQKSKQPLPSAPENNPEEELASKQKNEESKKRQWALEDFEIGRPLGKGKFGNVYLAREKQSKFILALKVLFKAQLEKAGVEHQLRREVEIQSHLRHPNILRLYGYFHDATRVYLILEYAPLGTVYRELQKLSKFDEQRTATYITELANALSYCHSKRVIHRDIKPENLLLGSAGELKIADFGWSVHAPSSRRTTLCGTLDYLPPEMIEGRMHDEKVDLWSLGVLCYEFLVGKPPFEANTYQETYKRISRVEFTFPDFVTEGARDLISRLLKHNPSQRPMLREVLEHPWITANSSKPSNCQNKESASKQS

Aurora kinase B = Aurora kinase B (Homo sapiens, UniProt Q96GD4); type: functional
Sequence of Aurora kinase B (Q96GD4 whole entry): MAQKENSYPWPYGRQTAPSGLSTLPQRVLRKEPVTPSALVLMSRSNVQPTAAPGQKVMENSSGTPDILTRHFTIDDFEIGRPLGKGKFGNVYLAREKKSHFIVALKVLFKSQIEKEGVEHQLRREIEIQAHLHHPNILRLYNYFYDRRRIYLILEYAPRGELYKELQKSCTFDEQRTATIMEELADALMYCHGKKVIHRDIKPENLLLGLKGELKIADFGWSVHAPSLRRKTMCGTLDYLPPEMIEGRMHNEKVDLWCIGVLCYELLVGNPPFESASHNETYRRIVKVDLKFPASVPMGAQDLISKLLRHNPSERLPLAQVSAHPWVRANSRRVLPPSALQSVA

HEK293 [8] = experiment: cells; details: Homo sapiens
HEK293 [9] = experiment: cells; details: Homo sapiens; remark: listed apart in the source
Cytochrome P450 3A4 = Cytochrome P450 3A4 (Homo sapiens, UniProt P08684);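 note: CYP3A4 tested as one member of a cytochrome P450 panel screen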
Sequence of Cytochrome P450 3A4 (P08684 whole entry): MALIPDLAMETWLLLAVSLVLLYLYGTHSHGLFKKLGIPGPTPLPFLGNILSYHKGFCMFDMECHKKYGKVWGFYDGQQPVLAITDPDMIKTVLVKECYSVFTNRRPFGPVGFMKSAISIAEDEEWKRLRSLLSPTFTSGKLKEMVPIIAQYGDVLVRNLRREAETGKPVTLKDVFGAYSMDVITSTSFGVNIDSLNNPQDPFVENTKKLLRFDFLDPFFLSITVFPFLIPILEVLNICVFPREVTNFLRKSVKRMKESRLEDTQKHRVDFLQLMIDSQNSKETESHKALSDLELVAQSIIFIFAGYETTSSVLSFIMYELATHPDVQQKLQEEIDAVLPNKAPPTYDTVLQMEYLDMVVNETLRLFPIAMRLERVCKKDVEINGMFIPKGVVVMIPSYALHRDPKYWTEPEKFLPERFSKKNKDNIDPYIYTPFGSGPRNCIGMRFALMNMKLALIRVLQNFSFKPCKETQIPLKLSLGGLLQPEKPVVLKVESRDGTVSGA

Nonstructural protein 1 = Nonstructural protein 1 (Influenza A virus, UniProt Q194T2); type: functional, Influenza A virus (A/California/07/2009(H1N1))
Sequence of Nonstructural protein 1 (Q194T2 whole entry): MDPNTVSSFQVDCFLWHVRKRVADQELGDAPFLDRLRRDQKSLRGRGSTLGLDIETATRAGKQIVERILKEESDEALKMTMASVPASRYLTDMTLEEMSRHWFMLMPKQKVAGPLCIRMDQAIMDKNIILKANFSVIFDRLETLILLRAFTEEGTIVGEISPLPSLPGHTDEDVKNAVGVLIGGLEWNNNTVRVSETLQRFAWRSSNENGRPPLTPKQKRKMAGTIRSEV

[10] = miR-122 activators in hepatoma reporter cells, dose response, cell-based, Huh7 psiCHECK-miR122, Renilla luciferase, cherry-picked (AID 651956); type: functional;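 note: huh7 hepatoma cells stably carrying a psiCHECK-2 miR-122 sensor plasmid; renilla luciferase signal reporting endogenous miR-122 activity after 48 h compound exposure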
Cytochrome P450 2C19 = Cytochrome P450 2C19 (Homo sapiens, UniProt P33261); experiment: Cytochrome panel assay with activity outcomes. Panel member name: p450-cyp2c19 Compounds with AC50 equal or less than 10 uM are considered active; type: functional; details: read-out: AC50
Sequence of Cytochrome P450 2C19 (P33261 whole entry): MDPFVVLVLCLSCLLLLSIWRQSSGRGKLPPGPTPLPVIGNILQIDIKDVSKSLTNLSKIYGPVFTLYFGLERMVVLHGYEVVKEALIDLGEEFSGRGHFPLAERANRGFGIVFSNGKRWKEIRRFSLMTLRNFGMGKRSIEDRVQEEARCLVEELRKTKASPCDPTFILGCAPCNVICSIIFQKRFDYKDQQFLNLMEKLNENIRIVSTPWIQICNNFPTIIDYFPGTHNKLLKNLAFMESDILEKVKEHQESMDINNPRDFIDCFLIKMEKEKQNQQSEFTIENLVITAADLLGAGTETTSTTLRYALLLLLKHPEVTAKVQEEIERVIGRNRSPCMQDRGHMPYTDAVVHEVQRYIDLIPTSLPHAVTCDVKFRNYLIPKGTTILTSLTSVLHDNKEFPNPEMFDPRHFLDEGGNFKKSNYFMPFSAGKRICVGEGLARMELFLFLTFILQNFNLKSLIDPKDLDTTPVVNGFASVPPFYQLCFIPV

Cytochrome P450 2C9 = Cytochrome P450 2C9 (Homo sapiens, UniProt P11712)
Sequence of Cytochrome P450 2C9 (P11712 whole entry): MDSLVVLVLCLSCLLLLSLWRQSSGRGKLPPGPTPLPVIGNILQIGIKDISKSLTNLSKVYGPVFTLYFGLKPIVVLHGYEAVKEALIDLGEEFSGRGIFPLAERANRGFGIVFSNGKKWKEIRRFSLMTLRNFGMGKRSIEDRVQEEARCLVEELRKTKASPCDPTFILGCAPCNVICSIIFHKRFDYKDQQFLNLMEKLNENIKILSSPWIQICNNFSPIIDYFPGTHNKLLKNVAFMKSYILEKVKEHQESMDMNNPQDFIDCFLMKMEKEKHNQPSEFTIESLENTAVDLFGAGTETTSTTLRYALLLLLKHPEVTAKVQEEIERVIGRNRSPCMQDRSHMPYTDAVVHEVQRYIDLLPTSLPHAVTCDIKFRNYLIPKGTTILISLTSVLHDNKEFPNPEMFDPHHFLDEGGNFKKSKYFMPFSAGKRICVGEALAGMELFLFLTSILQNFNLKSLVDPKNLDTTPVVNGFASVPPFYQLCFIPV

[11] = Luminescence Cell-Based Dose Retest to Confirm Inhibitors of Cancer Stem Cells. [Related pubchem assays (depositor defined):AID2717, AID2721]; type: functional; details: Homo sapiens
[12] = intracellular Trypanosoma cruzi inhibitors in host cells – cell-based, plate reader, cherry-pick samples, set 3, dose response (AID 651818); type: functional;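 note: compounds incubated with infected cells for about four days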
[13] = C. albicans growth with fluconazole, confirmation, fluorescence, retest (AID 2467); type: functional, cell-based
[14] = NIH-3T3 fibroblast cytotoxicity, dose response, cytotoxicity control, cell-based, fluorescence, Alamar Blue, secondary assay (AID 2327); type: functional;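 note: NIH-3T3 mouse fibroblasts cultured with fluconazole at 8 µg/mL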

## CCCn1c(NC(=O)c2ccc([N+](=O)[O-])o2)nc2ccccc21
[1]
  EC50: > 30 µM (not active)
[2]
  CC50: 13.3 µM (active)
[3]
  IC50: > 118 µM (inactive)
[4]
  CC50: 17.1 µM (active)
Exodeoxyribonuclease V
  IC50: > 118 µM (inactive)
cells
  IC50: 1.51 µM (active)
[5]
  EC50: 0.128 µM (active)

## Cn1c2ccccc2c(=O)c2ccc(C#Cc3ccc(N)cc3)cc21
Streptococcus
  EC50: 2.12 µM (active)
[6]
  EC50: 1.92 µM (active)
Beta Lactamase
  IC50: 5.26 µM (active)
[7]
  CC50: > 50 µM (active)
CHO
  IC50: > 49.8 µM (inactive)

## COCCOC1CCC(n2nc(-c3ccc(Nc4nc5cc(Cl)ccc5o4)c(F)c3)c3c(N)ncnc32)CC1 (stereo unspecified)
Aurora kinase A
  Ki: 0.0398 µM (active)
Aurora kinase B
  Ki: 0.01 µM (active)

## Cc1cccc(/C=N/NC(=O)c2cccc([N+](=O)[O-])c2)n1
HEK293 [8]
  EC50: > 59.6 µM (inactive)
HEK293 [9]
  EC50: > 59.6 µM (inactive)

## O=C(c1cccc(F)c1)N1CCC2(CC1)CN(c1ncccn1)C2
Cytochrome P450 3A4
  AC50: inconclusive

## CN(C)c1ccc(N=Nc2ccccc2C(=O)OCC(=O)NC2CCCC2)cc1
Nonstructural protein 1
  IC50: 20.4 µM (active)

## COc1ccccc1-c1ccc2c(c1)C(C)(Cc1cccc(C#N)c1)C(=O)N2 (stereo unspecified)
HEK293 [8]
  EC50: > 59.6 µM (inactive)
HEK293 [9]
  EC50: > 59.6 µM (inactive)

## COc1ccc(CN2CCC2(C)C(=O)Nc2cccc(NS(C)(=O)=O)c2)c2ccccc12 (stereo unspecified)
HEK293 [8]
  EC50: > 59.7 µM (inactive)
HEK293 [9]
  EC50: > 59.7 µM (inactive)

## C[C@H]1CN([C@@H](C)CO)C(=O)c2cc(-c3ccc(C#N)cc3)cnc2O[C@H]1CN(C)C(=O)Nc1ccc(C(F)(F)F)cc1
[10]
  AC50: 7.44 µM (active)

## O=C(Cc1ccccc1)Nc1nc(=O)c2ccccc2s1
Cytochrome P450 2C19
  AC50: 2.82 µM (inconclusive)
Cytochrome P450 3A4
  AC50: inconclusive
Cytochrome P450 2C9
  AC50: 3.55 µM (inconclusive)

## Cc1ccsc1/C=C/c1ccc2cccc(O)c2n1
HEK293 [8]
  EC50: > 59.7 µM (inactive)
[11]
  AC50: 6.83 µM (active)
HEK293 [9]
  EC50: > 59.7 µM (inactive)

## C[C@@H]1CN([C@@H](C)CO)C(=O)Cc2cc(NS(=O)(=O)c3ccccc3)ccc2O[C@@H]1CN(C)S(=O)(=O)c1ccc(Cl)cc1
[12]
  AC50: 6.08 µM (active)

## C[C@H]1CN([C@@H](C)CO)C(=O)Cc2cc(N(C)C)ccc2O[C@@H]1CN(C)Cc1ccc(C(=O)Nc2ccccc2N)cc1
[12]
  AC50: 0.794 µM (active)

## C[C@@H]1CCCCO[C@@H](CN(C)Cc2ccc(Cl)c(Cl)c2)[C@@H](C)CN([C@H](C)CO)C(=O)c2cc(NC(=O)c3ccccc3)ccc2O1
[12]
  AC50: 6.25 µM (active)

## C/C(=N\Nc1ccc([N+](=O)[O-])cc1)c1ccc2c(c1)OCO2
[13]
  EC50: > 38 µM (not active)
[14]
  EC50: > 150 µM (inactive)
Beta Lactamase
  IC50: 12.5 µM (inactive)
CHO
  IC50: > 49.7 µM (inactive)
